# Laboratory results: patent EP4620312A1, “ENDOTHELIN-1 SECRETION INHIBITOR” (Mitsui DM Sugar Co., Ltd., priority 2022, dated 2024)
# Tested on: endothelin-1
# Experiment: Endothelin-1 concentration in blood (ELISA) before and after a 75-g OGTT during 12-week daily jelly ingestion
# Type: in vivo, human
# Conditions: for endothelin-1 concentration at 60 minutes and 120 minutes after the 75-g OGTT compared to before the 75-g OGTT: healthy middle to elderly persons
# Description: Subjects were 54 healthy middle to elderly persons (30 males and 24 females). All subjects were assigned to one of the groups, i.e., an isomaltulose ingestion group (Group I) and a sucrose ingestion group (Group S), in a single blind test before intervention, and the intervention was performed for 12 weeks each.
# All subjects ingested jellies having compositions described in Table 1 once a day for 12 weeks continuously. Group I received a jelly containing isomaltulose (Example 1), and group S received a jelly containing sucrose (Comparative Example 1). The jelly was taken every morning before breakfast, and all subjects were instructed not to change their dietary habits during the intervention period from those before the intervention. A 75 g oral glucose tolerance test (75-g OGTT, described in detail below) was performed before the 12-week intervention and at 4 weeks, 8 weeks, and 12 weeks after the start of the intervention, after the lapse of 1 day or more from the ingestion of the jelly and the secretion amount of endothelin-1 was evaluated by the method described below before the 75-g OGTT and at 60 minutes and 120 minutes after the 75-g OGTT.
# The 75-g OGTT was performed under the instruction of a doctor using TRELAN- G 75 g (Yoshindo Inc.), which is generally used in medical institutions and research, and the test solution was orally ingested in a general volume (225 mL per dose) within 5 minutes according to the guidelines of the Japan Diabetes Society (Araki E, Goto A, Kondo T, Noda M, Noto H, Origasa H, et al. Japanese Clinical Practice Guideline for Diabetes 2019. J Diabetes Investig 2020; 11: 1020-1076.).
# For all subjects, blood was collected from the cubital vein in a fasting state for 12 hours or more in a hygienic environment. Before ingestion of a carbohydrate solution for the 75-g OGTT and at 60 minutes and 120 minutes after the ingestion, a nurse collected blood (15 to 20 mL per collection) using a sterilized disposable blood collection needle under the instruction of a doctor. A sample after blood collection was immediately centrifuged at 4°C and 3000 rpm for 15 minutes, and the concentration of endothelin-1 was measured by ELISA (enzyme-linked immunosorbent assay) using a test kit (Cayman Chemical, Ann Arbor) for measuring the concentration of endothelin-1.
# A change in endothelin-1 concentration before and after the start of the intervention of each group was shown as the average value (95% confidence interval). For the comparison of the change in endothelin-1 concentration between the 2 groups before and after the 75-g OGTT, a two-way repeated measures ANOVA was used. The Bonferroni method was performed for comparison of changes in each intervention in post-hoc test. The total area under the curve at 90 minutes (endothelin-1 concentration AUC) was calculated using the trapezoidal rule. For statistical analysis, IBM SPSS Statistics Ver. 25 (manufactured by IBM Corporation) was used. The statistical significance level in this test was set at 5%.
# [1] = jelly with 25 g once a day, oral, at 4, 8, and 12 weeks after the start of the intervention
Molecule,endothelin-1 concentration at 60 minutes and 120 minutes after the 75-g OGTT compared to before the 75-g OGTT [1],"secretion of endothelin-1 (overall conclusion) (after 75-g OGTT at 4, 8, and 12 weeks after the start of the intervention, Group I versus Group S)","endothelin-1 concentration before the 75-g OGTT and at 60 minutes and 120 minutes after the 75-g OGTT, Group I versus Group S (jelly with 25 g once a day, oral, at 4, 8, and 12 weeks after the start of the intervention, p < 0.01)","endothelin-1 concentration AUC, Group I versus Group S (jelly with 25 g once a day, oral, at 4, 8, and 12 weeks after the start of the intervention, trapezoidal rule, p < 0.01)"
"OC[C@H]1O[C@@](CO)(O[C@H]2O[C@H](CO)[C@@H](O)[C@H](O)[C@H]2O)[C@@H](O)[C@@H]1O [sucrose, reference compound]",significantly increased,,,
6-O-α-D-glucopyranosyl-D-fructose [isomaltulose],no significant change,inhibited the secretion of endothelin-1,significantly lower value,significantly lower value
